Results reported in ChEMBL document CHEMBL1201862, “PubChem BioAssay data set” (2004).
The source made the active and inactive calls.

Experiments:
[1] = Luminescence Cell-Based Dose Retest to Confirm Inhibitors of Cancer Stem Cells. [Related pubchem assays (depositor defined):AID2717, AID2721]; format: functional; details: Homo sapiens
[2] = viability loss of HMLE_sh_eGFP cells – cell-based, luminescence, counter-screen for HMLE_sh_ECad selective toxicity project, dose response (AID 463074); format: functional, Homo sapiens;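 also: HMLE human mammary epithelial cells expressing control shRNA against eGFP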
HEK293 [3] = test: cells; details: Homo sapiens
HEK293 [4] = test: cells; details: Homo sapiens; remark: listed apart in the source
[5] = molecular target: Dual specificity protein phosphatase 3 (Homo sapiens, UniProt P51452); test: SAR VHR1 Fluorescent Assay for In Vitro dose response studies Set 3. [Related pubchem assays (depositor defined):AID1654, AID1661, AID1878]; format: functional
Sequence of Dual specificity protein phosphatase 3 (P51452 whole entry): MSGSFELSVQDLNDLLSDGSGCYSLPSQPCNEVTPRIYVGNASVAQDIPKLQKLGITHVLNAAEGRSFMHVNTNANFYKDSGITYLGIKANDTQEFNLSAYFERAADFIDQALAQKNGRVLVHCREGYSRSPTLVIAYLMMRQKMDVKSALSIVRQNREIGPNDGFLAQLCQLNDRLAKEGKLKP

Jurkat = test: SAR Analysis of small molecule inhibitors of […] specific antigen receptor-induced NF-kB activation in a Jurkat cell line using a luminescence assay - Set 3. [Related pubchem assays (depositor defined):AID435022, AID435025, AID465]; format: functional, cell-based; details: Homo sapiens
HEK293 [6] = test: SAR Analysis of small molecule inhibitors of B-cell specific antigen receptor-induced NF-kB activation in a HEK-293T cell line using a luminescence assay - Set 2. [Related pubchem assays (depositor defined):AID435022, AID435025, AID489021]; format: functional, cell-based; details: Homo sapiens
HEK293 [7] = test: HEK293T cell viability loss, resazurin readout – resazurin fluorescence, cytotoxicity control for NF-kB activator project, SAR follow-up (AID 493251); format: functional, cell-based; details: Homo sapiens
Beta Lactamase [8] = molecular target: T1, Beta Lactamase (Pseudomonas aeruginosa, UniProt Q932Y6);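 also: confirmatory high-throughput screen measuring VIM-2 metallo-beta-lactamase inhibition by epi-absorbance in dose response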
T1 sequence (Q932Y6 whole entry): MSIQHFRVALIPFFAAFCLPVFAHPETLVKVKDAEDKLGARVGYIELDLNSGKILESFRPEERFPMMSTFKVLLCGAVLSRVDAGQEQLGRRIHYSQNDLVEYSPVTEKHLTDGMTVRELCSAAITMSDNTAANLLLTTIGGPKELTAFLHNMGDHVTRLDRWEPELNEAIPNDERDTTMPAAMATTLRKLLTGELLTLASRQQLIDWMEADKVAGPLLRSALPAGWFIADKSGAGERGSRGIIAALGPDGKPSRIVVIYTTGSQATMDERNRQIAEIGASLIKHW

[9] = test system: Streptococcus sp. 'group A'; test: Streptococcus pyogenes SK(-)GAS viability under kanamycin – luminescence, BacTiterGlo, confirmation, counter-screen for streptokinase expression inhibitor project, dose response (AID 1900); format: functional, organism-based
Streptokinase A = molecular target: T2, Streptokinase A (Streptococcus pyogenes serotype M1, UniProt P10520); test: viability-normalized secreted streptokinase activity reduction – plasminogen activation absorbance, OD405, dose response (AID 1914); format: functional, Streptococcus pyogenes M1 GAS;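 also: secreted streptokinase activity via plasminogen activation per viability signal from cell pellet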
T2 sequence (P10520 whole entry): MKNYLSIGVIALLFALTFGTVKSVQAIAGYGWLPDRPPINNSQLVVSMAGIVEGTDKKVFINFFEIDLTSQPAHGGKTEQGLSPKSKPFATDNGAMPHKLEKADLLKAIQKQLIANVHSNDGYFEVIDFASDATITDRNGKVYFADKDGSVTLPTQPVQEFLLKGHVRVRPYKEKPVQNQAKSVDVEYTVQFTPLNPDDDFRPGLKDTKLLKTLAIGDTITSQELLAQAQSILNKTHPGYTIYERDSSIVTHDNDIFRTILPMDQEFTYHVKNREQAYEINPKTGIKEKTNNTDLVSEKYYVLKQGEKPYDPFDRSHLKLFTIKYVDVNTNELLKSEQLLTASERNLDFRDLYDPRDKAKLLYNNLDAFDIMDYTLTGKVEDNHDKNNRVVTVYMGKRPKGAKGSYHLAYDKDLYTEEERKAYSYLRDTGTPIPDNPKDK

Beta-lactamase [10] = molecular target: Beta-lactamase (Pseudomonas aeruginosa, UniProt Q79MP6);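 also: biochemical dose-response test of metallo-beta-lactamase enzyme inhibition, read out by epi-absorbance; purified recombinant IMP-1 metallo-beta-lactamase with nitrocefin as substrate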
Sequence of Beta-lactamase (Pseudomonas aeruginosa, UniProt Q79MP6) (Q79MP6 whole entry): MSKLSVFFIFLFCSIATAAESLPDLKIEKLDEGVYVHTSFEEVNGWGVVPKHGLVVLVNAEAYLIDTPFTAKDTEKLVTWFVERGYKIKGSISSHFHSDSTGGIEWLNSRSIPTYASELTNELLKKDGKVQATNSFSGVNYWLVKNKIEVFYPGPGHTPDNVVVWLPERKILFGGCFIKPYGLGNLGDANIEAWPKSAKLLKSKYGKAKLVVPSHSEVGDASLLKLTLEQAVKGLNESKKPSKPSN

Beta-lactamase [11] = molecular target: Beta-lactamase (Salmonella choleraesuis (strain SC-B67), UniProt Q5J463)
Sequence of Beta-lactamase (Salmonella choleraesuis (strain SC-B67), UniProt Q5J463) (Q5J463 whole entry): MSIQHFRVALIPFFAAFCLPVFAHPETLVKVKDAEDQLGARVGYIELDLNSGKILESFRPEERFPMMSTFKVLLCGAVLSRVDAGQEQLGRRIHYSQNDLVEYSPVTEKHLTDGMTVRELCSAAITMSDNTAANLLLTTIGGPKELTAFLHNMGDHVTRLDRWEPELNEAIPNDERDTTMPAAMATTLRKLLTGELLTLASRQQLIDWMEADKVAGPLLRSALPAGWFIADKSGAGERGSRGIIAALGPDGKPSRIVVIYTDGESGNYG

Streptococcus = test: GAS UMAA2166 growth inhibition – luminescence, BacTiterGlo, counter-screen for streptokinase expression inhibitor project, dose response (AID 1915); format: functional, organism-based;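 also: potency for reduction of bacterial viability or growth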
HeLa = test: viability loss in HeLa cells – cell-based, 24 h, cherry-picked samples, cytotoxicity control, dose response (AID 504726); format: functional; details: Homo sapiens
ORF 73 = ORF 73 (Human herpesvirus 8, UniProt O40947); test: KSHV LANA DNA-binding disruption – biochemical, fluorescence polarization, cherry-picked samples, dose response (AID 504725); parameters: species or system Human gammaherpesvirus 8;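 also: fluorescence polarization of a labeled DNA duplex reporting LANA DNA binding; potency is for inhibitors that block LANA binding to the DNA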
Sequence of ORF 73 (O40947 whole entry): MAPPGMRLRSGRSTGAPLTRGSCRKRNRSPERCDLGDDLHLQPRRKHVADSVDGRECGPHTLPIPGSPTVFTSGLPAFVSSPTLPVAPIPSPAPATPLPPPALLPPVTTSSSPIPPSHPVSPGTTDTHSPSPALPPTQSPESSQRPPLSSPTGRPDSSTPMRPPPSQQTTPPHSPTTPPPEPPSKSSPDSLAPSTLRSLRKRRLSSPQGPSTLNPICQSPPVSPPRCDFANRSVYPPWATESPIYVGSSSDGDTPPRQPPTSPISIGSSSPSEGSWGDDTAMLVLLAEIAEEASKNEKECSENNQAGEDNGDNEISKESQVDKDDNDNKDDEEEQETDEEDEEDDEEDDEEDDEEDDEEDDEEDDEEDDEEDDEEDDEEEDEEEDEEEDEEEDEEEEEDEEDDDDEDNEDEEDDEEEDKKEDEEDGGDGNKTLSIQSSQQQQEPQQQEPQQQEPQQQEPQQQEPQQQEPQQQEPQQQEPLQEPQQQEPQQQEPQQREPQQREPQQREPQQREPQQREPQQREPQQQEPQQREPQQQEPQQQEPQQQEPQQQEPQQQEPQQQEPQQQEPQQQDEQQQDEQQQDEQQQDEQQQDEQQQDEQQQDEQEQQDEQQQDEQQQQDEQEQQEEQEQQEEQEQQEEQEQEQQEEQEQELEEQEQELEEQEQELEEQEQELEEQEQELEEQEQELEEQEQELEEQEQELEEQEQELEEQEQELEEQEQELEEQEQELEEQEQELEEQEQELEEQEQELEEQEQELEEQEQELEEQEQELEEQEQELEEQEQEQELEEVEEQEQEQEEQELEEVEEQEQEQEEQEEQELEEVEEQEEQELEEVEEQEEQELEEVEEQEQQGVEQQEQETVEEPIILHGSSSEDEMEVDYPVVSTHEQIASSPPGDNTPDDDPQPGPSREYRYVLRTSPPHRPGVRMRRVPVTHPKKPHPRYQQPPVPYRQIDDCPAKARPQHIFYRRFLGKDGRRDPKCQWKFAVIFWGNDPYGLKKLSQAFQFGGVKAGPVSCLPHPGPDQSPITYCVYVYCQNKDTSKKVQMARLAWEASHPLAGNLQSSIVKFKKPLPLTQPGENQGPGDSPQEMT

[12] = molecular target: T3, Heat shock factor protein 1 (Mus musculus, UniProt P38532); test: enhancement of HSF1-driven luciferase signal – cell-based, NIH3T3, luminescence, dose retest, confirmation (AID 435004); format: functional;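 also: stress induced by proteasome inhibitor MG132 added 30 min after compound; luciferase reporter driven by HSF1 response element in NIH3T3 cells; actives raise luminescence as potentiators of the MG132 stress response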
T3 sequence (P38532 whole entry): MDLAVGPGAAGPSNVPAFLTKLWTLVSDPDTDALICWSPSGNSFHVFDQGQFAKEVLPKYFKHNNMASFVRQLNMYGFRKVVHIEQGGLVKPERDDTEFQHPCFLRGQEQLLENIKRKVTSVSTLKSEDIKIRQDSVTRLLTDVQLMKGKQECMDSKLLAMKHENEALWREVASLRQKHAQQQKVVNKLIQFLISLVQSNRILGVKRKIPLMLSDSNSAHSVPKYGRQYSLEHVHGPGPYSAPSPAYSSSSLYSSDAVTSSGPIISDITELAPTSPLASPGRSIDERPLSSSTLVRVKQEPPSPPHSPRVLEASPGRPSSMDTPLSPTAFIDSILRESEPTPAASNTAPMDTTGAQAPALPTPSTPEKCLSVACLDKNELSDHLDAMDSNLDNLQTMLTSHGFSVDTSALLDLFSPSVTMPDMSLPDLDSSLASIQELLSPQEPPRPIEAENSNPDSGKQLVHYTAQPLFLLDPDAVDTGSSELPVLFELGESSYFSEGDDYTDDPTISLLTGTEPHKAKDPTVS

CHO = CHO cell viability loss, potency – luminescence, cytotoxicity control for TLR9-MyD88 binding inhibitor project, dose response (AID 588339); format: functional, cell-based, hamster; details: Cricetulus griseus;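 also: CHO cells stably coexpressing TLR9 and MyD88 fusions from primary screen; compound exposure lasted 48 hours before viability readout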
[13] = molecular target: UDP-galactopyranose mutase (Mycobacterium tuberculosis, UniProt P9WIQ1); test: Inhibitors of Mycobacterium tuberculosis UDP-galactopyranose mutase (UGM) enzyme Measured in Biochemical System Using Plate Reader - 2105-02_Inhibitor_Dose_CherryPick_Activity. [Related pubchem assays (depositor defined):AID504439]
Sequence of UDP-galactopyranose mutase (P9WIQ1 whole entry): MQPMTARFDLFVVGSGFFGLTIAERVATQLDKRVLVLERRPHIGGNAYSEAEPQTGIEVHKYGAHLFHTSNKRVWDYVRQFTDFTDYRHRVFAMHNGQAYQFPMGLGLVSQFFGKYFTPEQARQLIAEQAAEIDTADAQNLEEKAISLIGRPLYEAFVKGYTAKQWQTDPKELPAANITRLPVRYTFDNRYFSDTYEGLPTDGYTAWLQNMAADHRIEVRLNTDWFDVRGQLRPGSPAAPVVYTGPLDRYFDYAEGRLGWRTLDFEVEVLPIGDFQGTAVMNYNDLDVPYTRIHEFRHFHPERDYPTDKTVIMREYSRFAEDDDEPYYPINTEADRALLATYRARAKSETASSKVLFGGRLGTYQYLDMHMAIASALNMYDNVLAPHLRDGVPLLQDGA

Insulin-degrading enzyme [14] = molecular target: T4, Insulin-degrading enzyme (Homo sapiens, UniProt P14735); test: recombinant IDE activation, cell-free – biochemical, fluorescence polarization, counter-screen for IDE activator project, dose response (AID 588681)
T4 sequence (P14735 whole entry): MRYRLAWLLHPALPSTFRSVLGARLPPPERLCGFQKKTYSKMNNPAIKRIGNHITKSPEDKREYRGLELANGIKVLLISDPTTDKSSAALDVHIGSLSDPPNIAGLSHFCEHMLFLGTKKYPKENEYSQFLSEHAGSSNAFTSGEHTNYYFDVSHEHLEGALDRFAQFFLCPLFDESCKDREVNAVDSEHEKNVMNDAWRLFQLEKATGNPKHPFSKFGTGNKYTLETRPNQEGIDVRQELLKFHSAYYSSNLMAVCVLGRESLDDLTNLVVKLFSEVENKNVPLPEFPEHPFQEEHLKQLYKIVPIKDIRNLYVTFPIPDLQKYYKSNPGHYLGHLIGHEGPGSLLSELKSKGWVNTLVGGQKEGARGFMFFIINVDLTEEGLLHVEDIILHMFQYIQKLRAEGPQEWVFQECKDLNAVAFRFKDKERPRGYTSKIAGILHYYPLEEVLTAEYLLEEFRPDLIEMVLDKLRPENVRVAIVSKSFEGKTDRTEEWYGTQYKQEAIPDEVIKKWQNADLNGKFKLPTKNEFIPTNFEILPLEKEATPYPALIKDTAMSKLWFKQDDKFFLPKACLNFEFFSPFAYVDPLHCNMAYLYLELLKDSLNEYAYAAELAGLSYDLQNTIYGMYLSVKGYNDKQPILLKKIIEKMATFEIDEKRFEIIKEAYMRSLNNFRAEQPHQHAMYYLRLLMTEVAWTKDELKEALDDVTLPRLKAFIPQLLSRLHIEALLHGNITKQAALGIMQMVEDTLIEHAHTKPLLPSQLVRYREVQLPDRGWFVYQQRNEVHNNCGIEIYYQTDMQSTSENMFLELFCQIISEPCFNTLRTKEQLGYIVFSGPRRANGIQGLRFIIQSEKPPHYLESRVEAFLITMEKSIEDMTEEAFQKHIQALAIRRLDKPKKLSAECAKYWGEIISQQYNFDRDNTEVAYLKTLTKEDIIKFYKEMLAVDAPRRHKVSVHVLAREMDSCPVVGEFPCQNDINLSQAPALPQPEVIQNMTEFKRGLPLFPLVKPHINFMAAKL

Keap1/Nrf2 = Keap1/Nrf2 (Homo sapiens, UniProt Q14145); test: disruptors of Keap1 binding to Nrf2 peptide – biochemical, fluorescence polarization, cherry-picked samples, dose response (AID 588683)
Sequence of Keap1/Nrf2 (Q16236 whole entry): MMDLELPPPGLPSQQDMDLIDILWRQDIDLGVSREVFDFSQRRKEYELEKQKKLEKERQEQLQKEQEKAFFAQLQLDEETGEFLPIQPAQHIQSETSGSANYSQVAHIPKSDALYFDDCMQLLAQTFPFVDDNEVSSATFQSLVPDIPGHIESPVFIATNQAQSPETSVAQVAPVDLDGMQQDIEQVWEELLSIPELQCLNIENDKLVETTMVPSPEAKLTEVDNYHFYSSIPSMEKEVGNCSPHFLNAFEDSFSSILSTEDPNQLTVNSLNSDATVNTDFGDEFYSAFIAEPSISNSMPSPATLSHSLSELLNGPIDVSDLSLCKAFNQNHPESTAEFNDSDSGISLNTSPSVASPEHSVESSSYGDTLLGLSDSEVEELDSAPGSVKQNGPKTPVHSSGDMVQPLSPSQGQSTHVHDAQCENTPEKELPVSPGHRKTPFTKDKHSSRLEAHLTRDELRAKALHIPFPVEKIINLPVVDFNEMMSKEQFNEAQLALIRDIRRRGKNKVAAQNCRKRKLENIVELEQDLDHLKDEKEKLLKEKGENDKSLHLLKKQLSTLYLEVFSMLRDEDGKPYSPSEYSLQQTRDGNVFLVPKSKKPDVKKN
Sequence of Keap1/Nrf2 (Q14145 whole entry): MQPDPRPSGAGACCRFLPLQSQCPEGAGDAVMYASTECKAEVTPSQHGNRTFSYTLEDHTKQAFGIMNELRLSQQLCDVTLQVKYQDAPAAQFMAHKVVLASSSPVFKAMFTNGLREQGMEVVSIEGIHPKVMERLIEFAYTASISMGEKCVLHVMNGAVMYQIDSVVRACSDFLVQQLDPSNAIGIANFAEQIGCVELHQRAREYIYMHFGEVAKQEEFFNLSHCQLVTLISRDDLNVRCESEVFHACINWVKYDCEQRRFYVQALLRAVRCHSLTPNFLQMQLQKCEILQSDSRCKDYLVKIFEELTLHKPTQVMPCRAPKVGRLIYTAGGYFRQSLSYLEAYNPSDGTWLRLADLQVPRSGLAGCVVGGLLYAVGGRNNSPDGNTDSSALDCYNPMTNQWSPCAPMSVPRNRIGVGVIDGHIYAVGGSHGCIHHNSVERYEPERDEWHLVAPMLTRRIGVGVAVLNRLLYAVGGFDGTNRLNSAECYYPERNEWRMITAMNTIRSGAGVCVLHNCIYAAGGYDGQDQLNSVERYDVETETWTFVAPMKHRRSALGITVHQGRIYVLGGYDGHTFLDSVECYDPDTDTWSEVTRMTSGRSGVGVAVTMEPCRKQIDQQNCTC

Beta Lactamase [15] = molecular target: T1, Beta Lactamase; test: BLA reporter interference, concentration series – BLA reporter cells, FRET fluorescence, artefact control for TLR9-MyD88 binding inhibitor project, dose response (AID 588341); format: cell-based;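 also: cell based assay in CHO-K1 cells stably expressing beta-lactamase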
Insulin-degrading enzyme [16] = molecular target: T4, Insulin-degrading enzyme; test: cellular IDE activation of Abeta substrate cleavage – fluorescence polarization, HEK cells, dose response (AID 588439); format: functional, cell-based
HEK293 [17] = test: membrane integrity loss in HEK cells – cell-based, fluorescence, cytotoxicity control for IDE activator project, dose response (AID 588440); format: functional; details: Homo sapiens;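 also: cytotoxicity by LDH release measuring loss of membrane integrity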
HEK293 [18] = test: optical interference in Abeta FP readout, dose response, artefact control for IDE activator project, biochemical, fluorescence polarization (AID 588442); format: functional, cell-based; details: Homo sapiens

O=C(CSc1ccc(F)cc1)N1CCC(c2nc3ccccc3s2)CC1
AC50 [1]: 40.5 µM (active)
AC50 [2]: 26.9 µM (active)

COc1ccc(N2C(=O)NC(NC(=O)C(C)(C)C)(C(F)(F)F)C2=O)cc1 (stereo not given)
EC50 (HEK293 [3]): > 59.7 µM (inactive)
EC50 (HEK293 [4]): > 59.7 µM (inactive)

Cc1ccc(C(=O)NC(=S)Nc2ccc(Cl)c(-c3nc4ccccc4s3)c2)cc1
IC50 [5]: > 66 µM (inactive)

CC(C)(C)c1ccc(-c2noc(CCC(=O)NC3CCCC3)n2)cc1
IC50 (Jurkat): 0.48 µM (active)
IC50 (HEK293 [6]): 0.78 µM (active)
IC50 (HEK293 [7]): > 80 µM (inactive)

CCCC/N=C1\C(=O)N(C)c2cccc3c(O)c4ccccc4c1c23
IC50 (Beta Lactamase [8]): 11.9 µM (inactive)
EC50 [9]: 6.81 µM (active)
EC50 (Streptokinase A): 21.4 µM (active)
IC50 (Beta-lactamase [10]): 14.3 µM (inactive)
IC50 (Beta-lactamase [11]): 4.28 µM (active)
EC50 (Streptococcus): 35.4 µM (active)
AC50 (HeLa): > 350 µM (inactive)
AC50 (ORF 73): 4.99 µM (active)
EC50 [12]: 56.5 µM (active)
IC50 (CHO): 20.1 µM (inactive)
AC50 [13]: 1.04 µM (active)
EC50 (Insulin-degrading enzyme [14]): > 54.7 µM (inactive)
AC50 (Keap1/Nrf2): 1.13 µM (active)
IC50 (Beta Lactamase [15]): 9.06 µM (active)
EC50 (Insulin-degrading enzyme [16]): > 54.7 µM (inactive)
IC50 (HEK293 [17]): > 89.2 µM (inactive)
EC50 (HEK293 [18]): > 54.7 µM (inactive)
